85 compounds from PubChem BioAssay AID2765 (Broad Institute, 2010) can be followed below.

Activity calls are given as the source filed them.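 Rule for the calls: active = half-maximal concentration for the rise in caspase light signal at or below ten times the top tested dose; inconclusive = flat fit between 30% and 70% activity, or unreliable curve fit; inactive = the rest.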

For this assay, the system named is MEF A1-2A-BIM cells, caspase 3/7 luminescence, 3 h. Kind of assay: caspase activation in A1-2A-BIM MEF cells, dose response, A1 inhibitor project, cell-based, luminescence, retest (AID 2765).

In general, EC50 refers to the midpoint of the concentration-response curve. Regarding `CN(C)CCCN(C(=O)c1ccc([N+](=O)[O-])s1)c1nc2cc3c(cc2s1)OCCO3`, the EC50 was > 16 µM (inactive).

On to `CCN(CC)CCN(C(=O)c1cc2c(ccc3ccccc32)oc1=O)c1nc2cc3c(cc2s1)OCCO3`, for which the EC50 is 8.31 µM.

Turning to `O=C1C(Cc2ccccc2)SC(=Nc2ccccc2)N1c1ccccc1` (stereo not given), the EC50 is > 35 µM (inactive).

Regarding `CCOC(=O)CCC(=O)Nc1ccc(S(=O)(=O)N2CCC(C)CC2)cc1`, the EC50 was > 35 µM (inactive).

For `COc1ccc(Nc2cc3n(c(=O)n2)CCc2cc(OC)c(OC)cc2-3)c(C)c1`, the EC50 is > 35 µM (inactive).

As for `CCc1ccc2nc(N(CCCN(C)C)C(=O)c3ccc(S(=O)(=O)N4CCc5ccccc5C4)cc3)sc2c1`, the EC50 was > 35 µM (inactive).

For the compound `C=CCNC(=O)CSc1nc2sc3c(c2c(=O)n1CCC)CCC3`, the EC50 is > 35 µM (inactive).

Consider `O=C(COc1ccc(/C=N/NC(=O)c2cc3ccccc3o2)cc1Cl)Nc1ccccc1`, for which the EC50 is 6.55 µM.

For `O=C(CSc1nnc(-c2ccncc2)o1)Nc1ccc(F)c(F)c1`, the EC50 was > 35 µM (inactive).

With `Cc1cc(C)c(C(=O)COC(=O)C2CCN(c3ccc(C(F)(F)F)cn3)CC2)cc1C`, the EC50 is > 35 µM (inactive).

On to `CCOC(=O)[C@@H]1[C@H]2COc3ccc(Br)cc3[C@H]2N2C(=O)N(c3ccc(Cl)cc3)C(=O)[C@@]12C`, for which the EC50 is > 35 µM (inactive).

On to `C=CCOc1c2ccc(C(=O)N(CC)c3ccc(OC)cc3)cc2nn1C`, for which the EC50 is > 35 µM (inactive).

Regarding `CCOc1ccccc1OCCC(=O)N1CCN(S(=O)(=O)c2ccccc2[N+](=O)[O-])CC1`, the EC50 is > 35 µM (inactive).

Turning to `O=C(NNc1cc(Br)c(O)c(Br)c1)c1ccccc1`, the EC50 was > 35 µM (inactive).

Take `COc1cc(/C=C2/C(=N)N3C=CSC3=NC2=O)ccc1OCCCOc1cc(C)ccc1C`: the EC50 was 7.28 µM.

Turning to `CCc1ccc(Nc2n[n+](-c3ccccc3)c(/C=C/c3ccccc3)s2)cc1`, the EC50 was 10.9 µM.

With `Cc1ccc(-c2nc(NC(=O)c3nn(C)cc3[N+](=O)[O-])sc2C)cc1`, the EC50 is 9.72 µM.

Take `CS(=O)(=O)c1nc(-c2ccco2)cc(C(F)(F)F)n1`: the EC50 was > 35 µM (inactive).

`CCN1CCN(c2nc3ccccc3nc2NS(=O)(=O)c2ccc(NC(C)=O)cc2)CC1`: the EC50 is > 35 µM (inactive).

In the case of `O=C(c1cccc(F)c1F)N1CCCC1`, the EC50 is > 35 µM (inactive).

With `Clc1ccc(C2=CC(c3ccco3)n3ncnc3N2)cc1` (stereo not given), the EC50 is > 35 µM (inactive).

Consider `CCOC(=O)CN1C(=O)CC(c2ccc([N+](=O)[O-])cc2)C1=O` (stereo not given), for which the EC50 is > 35 µM (inactive).

In the case of `COc1ccc(NC(=O)C(NC(C)=O)C(=O)NCc2ccccc2Cl)cc1` (stereo not given), the EC50 was > 35 µM (inactive).

For the compound `Cn1nnnc1Sc1ncnc2scc(-c3cccc4c3sc3ccccc34)c12`, the EC50 was > 35 µM (inactive).

In the case of `COC(=O)[C@]1(C)CCC[C@@]2(C)C3CC[C@@]4(C)C[C@]3(CCC21)CC4=NO` (stereo not given in full), the EC50 was > 35 µM (inactive).

As to `CCOC(=O)C1=NOC(COc2ccccc2C=O)C1` (stereo not given), the EC50 was > 35 µM (inactive).

With `CN(C(=O)CSc1nnc(C(F)(F)F)n1N)C1CCS(=O)(=O)C1` (stereo not given), the EC50 is > 35 µM (inactive).

`CCOc1ccc2nc(NCCNC(=O)Nc3cccc(C)c3)c(C#N)cc2c1`: the EC50 is 35.7 µM.

As to `COc1ccc(CN2CCCCC2C)cc1C` (stereo not given), the EC50 was > 35 µM (inactive).

On to `O=C1NC(=O)c2cc(NC(=O)C3CCCO3)ccc21` (stereo not given), for which the EC50 was > 35 µM (inactive).

In the case of `CCOC(=O)c1c(C)oc2c1c(CN1CCN(C(=O)OCC)CC1)c(O)c1ccccc12`, the EC50 is 8.16 µM.

As to `CSC(SC)=C(C#N)C(=O)c1ccccc1`, the EC50 was > 35 µM (inactive).

Turning to `COc1ccc(CN2CCN(Cc3cc4ccccc4o3)CC2CCO)c(F)c1` (stereo not given), the EC50 was > 35 µM (inactive).

As to `CCC(C)Nc1nnc(SCC(=O)c2c(N)n(C3CC3)c(=O)[nH]c2=O)s1` (stereo not given), the EC50 was > 35 µM (inactive).

For the compound `Cc1cc(C)cc(C(=O)N2CC(=O)Nc3ccccc32)c1`, the EC50 was > 35 µM (inactive).

`FC(F)(F)c1ccc(Cl)c(NC2=NCCCCC2)c1`: the EC50 is > 35 µM (inactive).

As to `COc1ccc(S(=O)(=O)N(CC(=O)NCCSc2ccccn2)c2ccccc2)cc1`, the EC50 is > 35 µM (inactive).

On to `NS(=O)(=O)c1ccc(S(=O)(=O)c2ccccc2)nc1`, for which the EC50 was > 35 µM (inactive).

As to `COc1ccc(CNC(=O)CN(Cc2ccc(Cl)cc2)S(=O)(=O)c2ccccc2)cc1`, the EC50 is > 35 µM (inactive).

Regarding `COc1ccc(C2C(C(=O)c3ccc(C)o3)=C(O)C(=O)N2Cc2cccnc2)cc1OC` (stereo not given), the EC50 is > 35 µM (inactive).

Take `COc1ccccc1OCC(=O)NNC(=O)c1ccc(F)c(S(=O)(=O)N2CCOCC2)c1`: the EC50 is > 35 µM (inactive).

With `NS(=O)(=O)c1ccc(CCNC(=O)CN2CCN(S(=O)(=O)c3ccccc3F)CC2)cc1`, the EC50 was > 35 µM (inactive).

Regarding `CC(C)[C@H]1CN=C2N(CCNC(=O)CCC3CCCCC3)[C@H](Cc3ccc(O)cc3)CN21`, the EC50 is > 35 µM (inactive).

Take `Cc1csc(NC(=O)c2cccc(S(=O)(=O)N3CCN(C)CC3)c2)n1`: the EC50 was > 35 µM (inactive).

Turning to `O=C(CCCCCn1c(=S)[nH]c2ccsc2c1=O)NC1CCCCC1`, the EC50 is > 35 µM (inactive).

Take `Cc1[nH]c(=S)c(C#N)c(C)c1Cc1ccc(Cl)cc1Cl`: the EC50 was > 35 µM (inactive).

With `Cc1cc(C)c(S(=O)(=O)N2CCCCCC2)cc1Br`, the EC50 was > 35 µM (inactive).

In the case of `Cc1ccc(C(=O)NCC(=O)OC(C)C(=O)Nc2ccc(N(C)C)cc2)s1` (stereo not given), the EC50 was > 35 µM (inactive).

Consider `O=C(NCc1ccccc1)c1cncc(Br)c1`, for which the EC50 is > 35 µM (inactive).

Consider `O=C(/C=C/c1ccc(O)cc1)c1ccc(O)cc1O`, for which the EC50 was > 35 µM (inactive).

Take `CSc1ccc(CNC(=O)Cn2nc(C)c3c(C)n(-c4ccc(C)cc4)nc3c2=O)cc1`: the EC50 was > 35 µM (inactive).

Regarding `COc1cc(/C=C/C(=O)c2ccc([N+](=O)[O-])o2)ccc1O`, the EC50 was > 35 µM (inactive).

On to `Cc1ccc(CS(=O)(=O)c2ncc(Cl)c(C(=O)Nc3ccc(OC(F)F)cc3)n2)cc1`, for which the EC50 is > 35 µM (inactive).

`CC1=C(C(N)=O)C(c2ccc3c(c2)OCO3)n2nc(-c3cccc(C)c3)nc2N1` (stereo not given): the EC50 was > 35 µM (inactive).

`COC(=O)C(CO)Nc1ncnc2onc(-c3ccc(F)cc3)c12` (stereo not given): the EC50 is > 35 µM (inactive).

On to `Cc1ccc(S(=O)(=O)c2nnn3c2nc(Nc2cccc(C)c2)c2ccccc23)cc1`, for which the EC50 is > 35 µM (inactive).

Regarding `Cc1ccc(N=C2C(=O)Nc3ccccc32)cc1`, the EC50 was > 35 µM (inactive).

Turning to `Cc1ccc(NC(=O)Cn2ncc(Cl)c(Cl)c2=O)cc1S(=O)(=O)N1CCCCC1`, the EC50 is > 35 µM (inactive).

In the case of `Clc1ccc(C(Cn2ccnc2)OCc2c(Cl)cccc2Cl)c(Cl)c1` (stereo not given), the EC50 was > 35 µM (inactive).

As for `COc1ccccc1NS(=O)(=O)c1ccc(C)c(C(=O)N2CCN(c3ccc(O)cc3)CC2)c1`, the EC50 was > 35 µM (inactive).

Consider `C=CCNC(=O)c1ccccc1NC(=O)COc1ccccc1`, for which the EC50 was > 35 µM (inactive).

Turning to `COc1ccc(C(=O)Nc2ccc(NC(C)=O)cc2)cc1S(=O)(=O)N1CCCCC1C` (stereo not given), the EC50 was > 35 µM (inactive).

As for `O=C(NCCO)C(=O)Nc1cc2c3c(c1)CCN3C(=O)CC2`, the EC50 is > 35 µM (inactive).

Regarding `O=C(Nc1ccc(Br)cc1C(=O)O)c1ccc2c(c1)C(=O)N(Cc1ccccc1)C2=O`, the EC50 is > 35 µM (inactive).

Turning to `COc1ccc(CNC(=O)Cc2cccs2)cc1OC`, the EC50 was > 35 µM (inactive).

On to `CN1C(C(=O)Nc2cccc(O)c2)=CC(c2ccco2)=NS1(=O)=O`, for which the EC50 was > 35 µM (inactive).

As to `O=C(Cn1ncc(Cl)c(Cl)c1=O)NCC1CCCCC1`, the EC50 was > 35 µM (inactive).

As to `Cc1ccc(SCCNC(=S)Nc2cc(C)ccc2C)cc1`, the EC50 was > 35 µM (inactive).

Take `COc1ccc2[nH]c3c(=O)n(/N=C/[C@H]4C(C)C=C(C)CC4C)c(=O)[nH]c3c2c1` (stereo not given in full): the EC50 is 16 µM.

Consider `CCOC(=O)C(C(=O)OCC)c1cc(Br)c2noc3c2c1C(=O)c1ccccc1-3`, for which the EC50 is > 35 µM (inactive).

As for `COc1ccc(-c2oc(=O)c3cc(OC)c(OC)cc3c2/C=C/c2cccc([N+](=O)[O-])c2)cc1`, the EC50 is > 35 µM (inactive).

Consider `CCOC(=O)CC1=C(C(=O)OCC)C2(C(=O)Nc3ccccc32)C(C#N)=C(N)O1` (stereo not given), for which the EC50 is > 35 µM (inactive).

In the case of `COc1ccccc1C(=O)NCCC(=O)N1CCN(S(=O)(=O)c2ccc(Cl)cc2)CC1`, the EC50 is > 35 µM (inactive).

As for `CCC(=O)N/C(N)=N/c1nc(C)c2cc(C)c(C)cc2n1`, the EC50 was > 35 µM (inactive).

For the compound `COC(=O)C1=C(C)N(Cc2ccccc2)C(=NCc2cc(OC)c(OC)c(OC)c2)N[C@H]1c1ccccc1`, the EC50 is > 35 µM (inactive).

Turning to `CC(C)N(C(=O)CSc1ccc(S(=O)(=O)N2CCCCC2)cn1)C(C)C`, the EC50 is > 35 µM (inactive).

On to `CCOC(=O)CSc1nnc(Cc2ccc(OC)cc2)n1-c1ccccc1`, for which the EC50 was > 35 µM (inactive).

On to `C=CCn1c(SCc2ccc(F)cc2)nnc1-c1sc2nc(C)cc(C)c2c1N`, for which the EC50 was > 35 µM (inactive).

On to `O=C(COc1ccc(Br)cc1F)NCC1(N2CCCCC2)CCCCC1`, for which the EC50 is > 35 µM (inactive).

Consider `CCCN1C(=O)/C(=N\OCC(=O)NC23CC4CC(CC(C4)C2)C3)c2ccccc21`, for which the EC50 was > 35 µM (inactive).

On to `CC(C)CNC(=S)N(Cc1ccco1)Cc1cc2cc3c(cc2[nH]c1=O)OCCO3`, for which the EC50 was > 35 µM (inactive).

As to `COc1cc(/C=C(/C#N)c2nc3ccccc3[nH]2)ccc1OCC(=O)Nc1ccccc1C(C)C`, the EC50 is 14.6 µM.

`COCc1cc(C)nc(SCC(=O)Nc2nc(C)cs2)c1C#N`: the EC50 is > 35 µM (inactive).

As for `O=C(OCn1ncc(Cl)c(Cl)c1=O)c1cccc(C(F)(F)F)c1`, the EC50 was > 35 µM (inactive).

Regarding `O=C(/C=C/c1ccc(F)cc1)NC(=S)Nc1ccccc1C(=O)NC1CCCCC1`, the EC50 is > 35 µM (inactive).
